Where two headings read alike, the source gives them in different places.
Assays:
[1] = molecular target: Ba/F3-EGFR (L858R/T790M/C797S) (Homo sapiens, UniProt P00533, T790M/C797S/L858R, cells depend on it); assay: Growth inhibition of cell line expressing EGFR (L858R/T790M/C797S); assay type: cell-based, mouse; conditions: read-out: BaF3_EGFR (L858R/T790M/C797S) IC50 value
Excerpt: Test for inhibitory activity against the growth of cell lines expressing wild-type and mutated EGFRs (in vitro)
(1) Mouse cell line Ba/F3-EGFR (d746-750/T790M/C797S) transfected with and stably expressing EGFR (d746-750/T790M/C797S), mouse cell Ba/F3-EGFR (L858R/T790M/C797S) transfected with and stably expressing EGFR (L858R/T790M/C797S), and mouse cell line Ba/F3-EGFR (WT) transfected with and stably expressing wild-type EGFR were each suspended in RPMI-1640 cell culture medium (RPMI-1640, 10% FBS, 100 unit/ml penicillin, 0.1 mg/ml streptomycin). In the case of the mouse cell line Ba/F3-EGFR (WT), RPMI-1640 cell culture medium containing EGF at a final concentration of 50 ng/ml was used to suspend this cell line. It should be noted that the mouse cell line Ba/F3-EGFR (d746-750/T790M/C797S) transfected with and stably expressing EGFR (d746-750/T790M/C797S), the mouse cell line Ba/F3-EGFR (L858R/T790M/C797S) transfected with and stably expressing EGFR (L858R/T790M/C797S) and the mouse cell line Ba/F3-EGFR (WT) transfected with and stably expressing wild-type EGFR were prepared by using nucleotide sequences encoding the proteins of SEQ ID NOs: 1 and 2 in accordance with Test Example 1 in WO2018/079310, These cell suspensions were seeded in wells of 96-well flat -bottomed plates. The compounds of the present invention were dissolved in DMSO, and serial dilutions of these test compounds were prepared with DMSO (1000-fold of the final concentration). Each test compound solution in DMSO or DMSO alone was diluted with RPMI-1640 cell culture medium for each cell line, and this dilution was added to wells of the cell culture plate such that the final concentration of DMSO was 0.1%, followed by culture at 37° C. for 3 days in a 5% carbon dioxide gas-containing incubator. Before and after addition of each test compound solution in DMSO, the number of cells was counted using the CellTiter-Glo® system (Promega) on the basis of the protocol recommended by Promega.
In each cell line, the rate of cell growth inhibition was calculated according to the equation shown below in wells to which each test compound was added at different concentrations. Moreover, the inhibition rate at each concentration was plotted for each test compound, and the concentration of each test compound required to give 50% cell survival rate, i.e., IC50 (nM) was determined by curve fitting software XLfit (IDBS).
Cell survival rate (%)=T/C×100
T: emission intensity in a well cultured for 3 days after addition of a test compound solution
C: emission intensity in a well cultured for 3 days after addition of DMSO
In accordance with the same procedures as shown in Test Example 2, the compounds of the present invention were tested for their inhibitory activity against the growth of the cell hoes expressing wild-type and mutated EGFRs.

human EGFR (WT) = molecular target: T1, human EGFR (WT) (Homo sapiens, UniProt P00533); assay: Inhibitory activity against EGFR (WT) kinase; assay type: biochemical
T1 construct: purchased Carna Biosciences Inc., Japan
T1 sequence (P00533 25-1210): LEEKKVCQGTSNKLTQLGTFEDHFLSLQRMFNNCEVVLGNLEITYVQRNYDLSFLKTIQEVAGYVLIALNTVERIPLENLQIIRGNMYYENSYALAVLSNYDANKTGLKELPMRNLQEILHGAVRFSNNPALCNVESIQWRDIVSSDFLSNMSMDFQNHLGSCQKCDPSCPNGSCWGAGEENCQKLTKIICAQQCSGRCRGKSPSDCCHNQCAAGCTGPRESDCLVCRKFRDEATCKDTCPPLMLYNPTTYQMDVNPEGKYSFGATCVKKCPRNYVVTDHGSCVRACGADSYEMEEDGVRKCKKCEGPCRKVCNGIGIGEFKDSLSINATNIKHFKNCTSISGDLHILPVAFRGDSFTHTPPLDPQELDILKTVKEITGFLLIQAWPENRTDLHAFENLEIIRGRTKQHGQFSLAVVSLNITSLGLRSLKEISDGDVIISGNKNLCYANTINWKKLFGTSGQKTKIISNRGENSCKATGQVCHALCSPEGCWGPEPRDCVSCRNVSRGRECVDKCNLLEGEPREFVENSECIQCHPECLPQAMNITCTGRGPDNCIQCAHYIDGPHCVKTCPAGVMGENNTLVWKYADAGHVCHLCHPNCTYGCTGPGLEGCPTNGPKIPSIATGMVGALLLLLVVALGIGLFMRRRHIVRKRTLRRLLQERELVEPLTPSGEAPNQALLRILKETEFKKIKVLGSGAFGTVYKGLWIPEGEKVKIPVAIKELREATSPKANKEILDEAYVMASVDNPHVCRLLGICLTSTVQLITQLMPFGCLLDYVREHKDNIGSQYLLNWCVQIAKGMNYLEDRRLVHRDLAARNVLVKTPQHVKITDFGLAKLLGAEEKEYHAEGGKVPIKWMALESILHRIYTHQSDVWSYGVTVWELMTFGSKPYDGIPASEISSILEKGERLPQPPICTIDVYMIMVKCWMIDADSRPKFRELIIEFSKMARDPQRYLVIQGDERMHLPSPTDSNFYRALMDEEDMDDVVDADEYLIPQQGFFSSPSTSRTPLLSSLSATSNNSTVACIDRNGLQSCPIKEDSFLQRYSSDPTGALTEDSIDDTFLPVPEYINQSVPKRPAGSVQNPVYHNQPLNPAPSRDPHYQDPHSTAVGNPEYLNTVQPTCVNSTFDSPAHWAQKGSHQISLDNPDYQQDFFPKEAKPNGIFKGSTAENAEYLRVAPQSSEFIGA
Summary of the method: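 Purified recombinant human wild-type EGFR kinase, with ATP at 1.5 μM final. Compound inhibition of kinase activity read out and fitted to give IC50 (nM).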

human EGFR (L858R/C797S) = molecular target: T2, human EGFR (L858R/C797S) (Homo sapiens, UniProt P00533, C797S/L858R); assay: Inhibitory activity against EGFR (L858R/C797S) kinase; assay type: biochemical; conditions: Test Example 1, Table 5; ATP 4 μM, 90 minutes
T2 construct: purchased SignalChem
T2 sequence (P00533 25-1210 C797S/L858R): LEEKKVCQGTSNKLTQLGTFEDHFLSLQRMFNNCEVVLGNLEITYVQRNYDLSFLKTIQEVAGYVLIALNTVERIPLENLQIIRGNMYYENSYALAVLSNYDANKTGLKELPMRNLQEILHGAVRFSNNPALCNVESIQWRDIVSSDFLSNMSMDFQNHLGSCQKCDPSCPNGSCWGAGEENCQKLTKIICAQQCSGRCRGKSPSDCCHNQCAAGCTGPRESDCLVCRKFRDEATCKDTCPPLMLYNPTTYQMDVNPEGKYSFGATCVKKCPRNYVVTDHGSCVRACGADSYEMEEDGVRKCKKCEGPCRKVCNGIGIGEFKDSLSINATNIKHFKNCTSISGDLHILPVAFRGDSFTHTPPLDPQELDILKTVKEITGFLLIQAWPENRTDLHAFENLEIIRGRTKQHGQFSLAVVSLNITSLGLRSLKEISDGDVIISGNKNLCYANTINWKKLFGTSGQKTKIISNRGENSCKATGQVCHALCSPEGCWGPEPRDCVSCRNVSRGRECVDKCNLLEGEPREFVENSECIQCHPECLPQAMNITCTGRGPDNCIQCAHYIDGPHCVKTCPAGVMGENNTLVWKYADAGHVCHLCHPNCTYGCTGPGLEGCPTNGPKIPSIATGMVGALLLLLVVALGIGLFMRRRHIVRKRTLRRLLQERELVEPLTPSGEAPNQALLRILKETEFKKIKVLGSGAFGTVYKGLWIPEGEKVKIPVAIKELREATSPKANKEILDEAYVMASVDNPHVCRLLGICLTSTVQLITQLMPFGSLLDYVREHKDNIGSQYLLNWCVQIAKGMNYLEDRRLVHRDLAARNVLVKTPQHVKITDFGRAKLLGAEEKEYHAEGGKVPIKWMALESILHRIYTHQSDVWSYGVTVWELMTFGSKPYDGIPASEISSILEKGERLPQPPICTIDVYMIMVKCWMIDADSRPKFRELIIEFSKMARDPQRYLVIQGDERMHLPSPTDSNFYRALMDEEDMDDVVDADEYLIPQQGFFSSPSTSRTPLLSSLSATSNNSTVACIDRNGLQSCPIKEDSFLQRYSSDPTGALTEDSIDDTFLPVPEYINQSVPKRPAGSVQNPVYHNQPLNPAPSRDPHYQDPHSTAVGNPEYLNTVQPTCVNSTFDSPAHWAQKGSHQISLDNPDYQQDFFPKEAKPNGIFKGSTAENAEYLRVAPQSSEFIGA
Summary of the method: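 Purified recombinant human EGFR (C797S/L858R) kinase, final ATP 4 μM, 90-minute kinase reaction, otherwise per the EGFR (d746-750/C797S) protocol. IC50 (nM) determined from inhibition data.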

[2] = Test Example 2, Table 7, culture 3 days, CellTiter-Glo
[3] = Test Example 1, Table 6, ATP 1.5 μM
[4] = Test Example 4, Table 13, same procedures as Test Example 2

Chain of Ba/F3-EGFR (L858R/T790M/C797S) (P00533 whole entry T790M/C797S/L858R): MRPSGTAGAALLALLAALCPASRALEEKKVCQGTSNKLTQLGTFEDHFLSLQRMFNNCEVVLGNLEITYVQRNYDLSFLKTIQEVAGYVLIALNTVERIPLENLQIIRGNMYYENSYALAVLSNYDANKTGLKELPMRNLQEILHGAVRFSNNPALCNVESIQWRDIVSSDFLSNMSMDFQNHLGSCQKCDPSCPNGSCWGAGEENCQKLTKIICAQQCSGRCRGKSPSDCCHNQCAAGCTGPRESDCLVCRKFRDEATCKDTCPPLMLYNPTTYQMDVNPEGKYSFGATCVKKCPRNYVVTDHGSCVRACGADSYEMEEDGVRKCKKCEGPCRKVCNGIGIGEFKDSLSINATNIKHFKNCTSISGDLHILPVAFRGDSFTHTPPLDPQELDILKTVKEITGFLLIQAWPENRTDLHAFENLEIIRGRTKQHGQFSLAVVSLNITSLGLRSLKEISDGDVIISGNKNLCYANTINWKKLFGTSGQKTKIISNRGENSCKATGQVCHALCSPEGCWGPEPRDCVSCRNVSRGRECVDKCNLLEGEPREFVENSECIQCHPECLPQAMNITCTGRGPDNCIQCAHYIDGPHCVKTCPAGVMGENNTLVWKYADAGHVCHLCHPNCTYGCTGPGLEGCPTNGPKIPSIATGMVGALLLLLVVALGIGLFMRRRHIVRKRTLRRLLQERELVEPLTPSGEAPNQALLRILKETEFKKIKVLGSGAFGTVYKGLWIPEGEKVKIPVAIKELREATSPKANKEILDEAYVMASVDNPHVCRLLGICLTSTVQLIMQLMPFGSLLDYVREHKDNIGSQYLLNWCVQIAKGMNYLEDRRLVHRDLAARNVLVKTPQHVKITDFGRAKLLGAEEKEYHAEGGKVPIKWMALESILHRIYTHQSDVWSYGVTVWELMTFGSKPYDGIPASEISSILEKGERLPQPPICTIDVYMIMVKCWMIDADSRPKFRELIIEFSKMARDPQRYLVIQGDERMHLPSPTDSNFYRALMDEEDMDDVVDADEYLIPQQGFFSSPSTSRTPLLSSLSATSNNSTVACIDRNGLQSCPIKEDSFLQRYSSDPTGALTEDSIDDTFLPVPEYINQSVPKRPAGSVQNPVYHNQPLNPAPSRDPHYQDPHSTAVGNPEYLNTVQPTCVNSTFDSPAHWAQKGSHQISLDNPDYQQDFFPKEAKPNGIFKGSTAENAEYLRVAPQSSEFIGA

Row | Compound | GI50 [1, 2] | IC50 (human EGFR (WT); [3]) | IC50 (human EGFR (L858R/C797S)) | GI50 [1, 4] | IC50 (human EGFR (WT); Test Example 3, Table 12; same procedures as 5) in Test Example 1)
1 | C=CC(=O)N1CC[C@@H](n2cc(-c3cnc4ccccc4c3)c3c(N)ncnc32)C1 [Comparative Example A, (R)-1-(3(4-Amino-5-(quinolin-3-yl)-7H-pyrrolo[2,3-d]pyrimidin-7-yl)pyrrolidin-1-yl) -prop-2-en-1-one, reference compound] | 2260 nM | 1.6 nM | 187 nM |  | 
2 | C#Cc1c(-c2cnc3ccccc3c2)c2c(N)ncnc2n1[C@@H]1CCN(C(=O)C=C)C1 [Comparative Example B, (R)-1-(3-(4-Amino-6-ethynyl-5-(quinolin-3-yl)-7H-pyrrolo[2,3-d]pyrimidin-7-yl) -pyrrolidin-1-yl)-prop-2-en-1-one, reference compound] | 3590 nM | 0.95 nM | 97 nM |  | 
3 | C#Cc1c(-c2cnc3ccccc3c2)c2c(N)ncnc2n1C12CCC(NC(=O)c3ccccc3)(CC1)C2 [Example 1, N-(4-(4-Amino-6-ethynyl-5-(quinolin-3-yl)-7H-pyrrolo[2,3-d]pyrimidin-7-yl)bicyclo-[2.2.1]heptan-1-yl)benzamide] |  | 2.1 nM | 2.8 nM | 887 nM | 
4 | C#Cc1c(-c2cnc3ccccc3c2)c2c(N)ncnc2n1C12CCC(NC(=O)c3cncnc3)(CC1)C2 [Example 2, N-(4-(4-Amino-6-ethynyl-5-(quinolin-3-yl)-7H-pyrrolo[2,3-d]pyrimidin-7-yl)bicyclo-[2.2.1]heptan-1-yl)pyrimidine-5-carboxamide] | 185 nM | 0.52 nM | 0.46 nM |  | 
5 | C#Cc1c(-c2cnc3ccccc3c2)c2c(N)ncnc2n1C12CCC(NC(=O)c3ccnnc3)(CC1)C2 [Example 3, N-(4-(4-Amino-6-ethynyl-5-(quinolin-3-yl)-7H-pyrrolo[2,3-d]pyrimidin-7-yl)bicyclo-[2.2.1]heptan-1-yl)pyridazine-4-carboxamide] | 529 nM | 0.45 nM | 0.37 nM |  | 
6 | C#Cc1c(-c2cnc3ccccc3c2)c2c(N)ncnc2n1C12CCC(N3CCOCC3)(CC1)C2 [Example 9, 6-Ethynyl-7-(4-morpholinobicyclo[2.2.1]heptan-1-yl)-5-(quinolin-3-yl)-7H-pyrrolo[2,3-d]pyrimidine-4-amine] |  | 2.6 nM | 1 nM | 592 nM | 
7 | C#Cc1c(-c2cnc3ccccc3c2)c2c(N)ncnc2n1C12CCC(CNC(=O)c3ccnn3C)(CC1)C2 [Example 13, N-((4-(4-Amino-6-ethynyl-5-(quinolin-3-yl)-7H-pyrrolo[2,3-d]pyrimidin-7-yl)bicyclo-[2.2.1]heptan-1-yl)methyl)-1-methyl-1H-pyrazole-5-carboxamide] | 910 nM | 0.61 nM | 0.69 nM |  | 
8 | C#Cc1c(-c2cnc3ccccc3c2)c2c(N)ncnc2n1C12CCC(CNC(=O)c3cnc(C)cn3)(CC1)C2 [Example 14, N-((4-(4-Amino-6-ethynyl-5-(quinolin-3-yl)-7H-pyrrolo[2,3-d]pyrimidin-7-yl)bicyclo-[2.2.1]heptan-1-yl)methyl)-5-methylpyrazine-2-carboxamide] | 952 nM | 1.7 nM | 1.3 nM |  | 
9 | C#Cc1c(-c2cnc3ccccc3c2)c2c(N)ncnc2n1C12CCC(NC(=O)c3ccc4ncnn4c3)(CC1)C2 [Example 16, N-(4-(4-Amino-6-ethynyl-5-(quinolin-3-yl)-7H-pyrrolo[2,3-d]pyrimidin-7-yl)bicyclo-[2.2.1]heptan-1-yl)-[1.2.4]triazolo[1,5-a]pyrimidin-6-carboxamide] |  | 0.53 nM | 0.49 nM | 283 nM | 
10 | C#Cc1c(-c2cnc3ccccc3c2)c2c(N)ncnc2n1C12CCC(NC(=O)c3cnns3)(CC1)C2 [Example 18, N-(4-(4-Amino-6-ethynyl-5-(quinolin-3-yl)-7H-pyrrolo[2,3-d]pyrimidin-7-yl)bicyclo-[2.2.1]heptan-1-yl)-1,2,3-thiadiazole-5-carboxamide] |  | 1.4 nM | 0.67 nM | 1270 nM | 
11 | C#Cc1c(-c2cnc3ccccc3c2)c2c(N)ncnc2n1C12CCC(NC(=O)c3ccnn3C3CC3)(CC1)C2 [Example 20, N-(4-(4-Amino-6-ethynyl-5-(quinolin-3-yl)-7H-pyrrolo[2,3-d]pyrimidin-7-yl)bicyclo-[2.2.1]heptan-1-yl)-1-cyclopropyl-1H-pyrazole-5-carboxamide] |  | 2.1 nM | 1.2 nM | 245 nM | 
12 | C#Cc1c(-c2cnc3ccccc3c2)c2c(N)ncnc2n1C12CCC(NC(=O)c3nccn3C)(CC1)C2 [Example 23, N-(4-(4-Amino-6-ethynyl-5-(quinolin-3-yl)-7H-pyrrolo[2,3-d]pyrimidin-7-yl)bicyclo-[2.2.1]heptan-1-yl)-1-methyl-1H-imidazole-2-carboxamide] |  | 1.4 nM | 0.84 nM | 649 nM | 
13 | C#Cc1c(-c2cnc3ccccc3c2)c2c(N)ncnc2n1C12CCC(NC(=O)c3ccnn3C)(CC1)C2 [Example 24, N-(4-(4-Amino-6-ethynyl-5-(quinolin-3-yl)-7H-pyrrolo[2,3-d]pyrimidin-7-yl)bicyclo-[2.2.1]heptan-1-yl)-1-methyl-1H-pyrazole-5-carboxamide] | 403 nM | 0.73 nM | 0.59 nM |  | 
14 | C#Cc1c(-c2cnc3ccccc3c2)c2c(N)ncnc2n1C12CCC(NC(=O)C(F)F)(CC1)C2 [Example 27, N-(4-(4-Amino-6-ethynyl-5-(quinolin-3-yl)-7H-pyrrolo[2,3-d]pyrimidin-7-yl)bicyclo-[2.2.1]heptan-1-yl)-2,2-difluoroacetamide] |  | 2.4 nM | 2.4 nM | 754 nM | 
15 | C#Cc1c(-c2cnc3ccccc3c2)c2c(N)ncnc2n1C12CCC(NC(=O)c3cncc(F)c3)(CC1)C2 [Example 35, N-(4-(4-Amino-6-ethynyl-5-(quinolin-3-yl)-7H-pyrrolo[2,3-d]pyrimidin-7-yl)-bicyclo-[2.2.1]heptan-1-yl)-5-fluoronicotinamide] |  | 1.3 nM | 0.84 nM | 348 nM | 
16 | C#Cc1c(-c2cnc3ccccc3c2)c2c(N)ncnc2n1C12CCC(NC(=O)c3noc(C)n3)(CC1)C2 [Example 36, N-(4-(4-Amino-6-ethynyl-5-(quinolin-3-yl)-7H-pyrrolo[2,3-d]pyrimidin-7-yl)-bicyclo-[2.2.1]heptan-1-yl)-5-methyl-1,2,4-oxadiazole-3-carboxamide] |  | 2.6 nM | 0.99 nM | 448 nM | 
17 | C#Cc1c(-c2cnc3ccccc3c2)c2c(N)ncnc2n1C12CCC(NC(=O)c3cnc(C)cn3)(CC1)C2 [Example 37, N-(4-(4-Amino-6-ethynyl-5-(quinolin-3-yl)-7H-pyrrolo[2,3-d]pyrimidin-7-yl)-bicyclo-[2.2.1]heptan-1-yl)-5-methylpyrazine-2-carboxamide] | 270 nM | 0.92 nM | 0.69 nM |  | 
18 | C#Cc1c(-c2cnc3ccccc3c2)c2c(N)ncnc2n1C12CCC(NC(C)=O)(CC1)C2 [Example 39, N-(4-(4-Amino-6-ethynyl-5-(quinolin-3-yl)-7H-pyrrolo[2,3-d]pyrimidin-7-yl)-bicyclo-[2.2.1]heptan-1-yl)acetamide] |  | 1.5 nM | 1.4 nM | 658 nM | 
19 | C#Cc1c(-c2cnc3ccccc3c2)c2c(N)ncnc2n1C12CCC(NC(=O)[C@@H]3CN(C)CCO3)(CC1)C2 [Example 63, (S)-N-(4-(4-Amino-6-ethynyl-5-(quinolin-3-yl)-7H-pyrrolo[2,3-d]pyrimidin-7-yl) -bicyclo[2.2.1]heptan-1-yl)-4-methylmorpholine-2-carboxamide] |  |  |  | 672 nM | 2.8 nM

Source: patent US11786534B2 (TAIHO PHARMACEUTICAL CO., LTD., priority 2019, dated 2023)
